Test results from US11001590B2, “Pyrazolopyrimidine derivatives” (BAYER ANIMAL HEALTH GMBH, priority 2016, dated 2021).

Key:
[1] = tested on: Dirofilaria immitis microfilariae; assay: In vitro assay 3: Dirofilaria immitis microfilariae (DIROIM L1), motility; conditions: 72 h, reduction of motility vs negative control, 72 h incubation
[2] = tested on: Litomosoides sigmodontis third-stage larvae; assay: In vitro assay 7: Litomosoides sigmodontis L3 (LTMOSI), motility; conditions: 72 h, reduction of motility vs negative control, 72 h incubation
Experimental: In Vitro Assay 7: Litomosoides Siqmodontis L3 (LTMOSI)
10 Litomosoides sigmodontis third-stage larvae, which were freshly isolated from the pleural cavity of an infected rodent, were added to wells of a microtitre plate containing a nutrient medium and the test compound in DMSO. Compounds were tested in concentration-response assay in duplicate. Larvae exposed to DMSO and no test compounds were used as negative controls. Larvae were evaluated after 72 h of incubation with the compound. Efficacy was determined as the reduction of motility in comparison to the negative control. Based on the evaluation of a wide concentration range, concentration-response curves as well as ECso-values were calculated.

[3] = tested on: Dirofilaria immitis third-stage larvae; assay: In vitro assay 4: Dirofilaria immitis (DIROIM L4), motility of larvae; conditions: 72 h
[4] = log P by HPLC on reversed phase columns (Method L0; [a] acidic, [b] neutral range)
Experimental: Calibration was done with straight-chain alkan-2-ones (with 3 to 16 carbon atoms) with known log P values (measurement of log P values using retention times with linear interpolation between successive alkanones). Lambda-max-values were determined using UV-spectra from 200 nm to 400 nm and the peak values of the chromatographic signals.

[5] = tested on: Nippostrongylus brasiliensis; assay: In vitro assay 2: Nippostrongylus brasiliensis (NIPOBR), acetylcholine esterase readout; conditions: adult worms, read-out: activity (reduction of AChE compared to negative control); for inhibition at 10 µg/mL: 10 μg/ml (10 ppm); for inhibition at 1 µg/mL: 1 μg/ml (1 ppm)
Experimental: In Vitro Assay 2: Nippostronqylus Brasiliensis (NIPOBR)
Adult Nippostrongylus brasiliensis were washed with saline buffer containing 100 U/ml penicillin, 0.1 mg/ml streptomycin and 2.5 μg/ml amphotericin B. Test compounds were dissolved in DMSO and worms were incubated in medium in a final concentration of 10 μg/ml (10 ppm) respectively 1 μg/ml (1 ppm). An aliquot of the medium was used to determine the acetylcholine esterase activity in comparison to a negative control. The principle of measuring acetylcholine esterase as readout for anthelmintic activity was described in Rapson et al (1986) and Rapson et al (1987).

C. elegans Slo-1a = C. elegans Slo-1a (Caenorhabditis elegans, UniProt Q95V25); assay: In vitro assay 1: C. elegans Slo-1a, action at a recombinant C. elegans CHO cell line (membrane potential measurement)
Chain of C. elegans Slo-1a (Q95V25 whole entry): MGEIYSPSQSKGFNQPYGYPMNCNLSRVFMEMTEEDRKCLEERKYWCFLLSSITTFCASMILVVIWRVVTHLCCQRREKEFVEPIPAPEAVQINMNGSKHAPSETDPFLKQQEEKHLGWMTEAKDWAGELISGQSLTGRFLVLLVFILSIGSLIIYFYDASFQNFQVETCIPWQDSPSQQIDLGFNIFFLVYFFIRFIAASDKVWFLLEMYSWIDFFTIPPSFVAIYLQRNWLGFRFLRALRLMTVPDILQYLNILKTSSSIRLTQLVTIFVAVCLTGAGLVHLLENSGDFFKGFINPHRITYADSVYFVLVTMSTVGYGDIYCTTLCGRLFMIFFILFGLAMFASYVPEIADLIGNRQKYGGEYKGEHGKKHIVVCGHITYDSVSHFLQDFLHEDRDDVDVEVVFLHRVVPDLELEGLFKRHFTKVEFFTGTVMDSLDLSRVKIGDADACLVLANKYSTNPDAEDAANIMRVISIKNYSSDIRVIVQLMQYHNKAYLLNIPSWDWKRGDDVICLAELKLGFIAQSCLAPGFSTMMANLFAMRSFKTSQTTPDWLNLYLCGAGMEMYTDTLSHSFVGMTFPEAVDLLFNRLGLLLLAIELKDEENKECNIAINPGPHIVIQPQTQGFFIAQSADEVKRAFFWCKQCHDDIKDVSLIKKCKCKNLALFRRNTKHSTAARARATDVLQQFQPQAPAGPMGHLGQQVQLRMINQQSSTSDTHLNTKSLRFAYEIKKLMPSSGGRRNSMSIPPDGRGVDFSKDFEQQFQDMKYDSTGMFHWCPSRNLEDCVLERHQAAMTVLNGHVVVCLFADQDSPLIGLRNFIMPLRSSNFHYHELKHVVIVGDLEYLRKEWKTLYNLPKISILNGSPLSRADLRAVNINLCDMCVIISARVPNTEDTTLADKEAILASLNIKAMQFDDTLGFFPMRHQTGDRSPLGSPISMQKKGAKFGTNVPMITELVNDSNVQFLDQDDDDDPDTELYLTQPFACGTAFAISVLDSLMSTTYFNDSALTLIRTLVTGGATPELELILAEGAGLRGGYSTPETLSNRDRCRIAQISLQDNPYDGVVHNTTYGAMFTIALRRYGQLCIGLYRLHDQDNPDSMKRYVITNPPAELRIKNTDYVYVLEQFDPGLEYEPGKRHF
Experimental: In Vitro Assay 1: C. Eleqans Slo-La—Action at a Recombinant C. elegans Cell Line
Cells were cultured at 37° C. and 5% CO2 in MEMalpha with Gutamax I (Invitrogen, Nr.: 32571), supplemented with 10% (v/v) heat inactivated fetal bovine serum (Invitrogen, Nr.: 10500), G418 (1 mg/ml, Invitrogen, Nr.: 10131). Cells were detached using Accutase (Sigma, Nr.: A6964).
Membrane Potential Measurements
Laboratory compound testing was performed on 384-well microtiter plates (MTPs, Greiner, Nr.: 781092). 8000 cells/well were plated onto 384-well MTPs and cultured for 20 to 24 hours at 37° C. and 5% CO2. After removal of the cell culture medium, the cells were washed once with tyrode (150 mM NaCl, 0.3 mM KCl, 2 mM CaCl2, 1 mM MgCl2, 0.8 mM NaH2PO4, 5 mM Glucose, 28 mM Hepes, pH 7.4) and then loaded with the voltage sensitive dye of the Membrane Potential Assay Kit diluted in tyrode for 1 h at room temperature.
After starting the measurement of fluorescence using a FLIPR Tetra (Molecular Devices, Exc. 510-545 nm, Emm. 565-625 nm), test compounds were added followed by the addition of KCl tyrode (final assay concentration: 70 mM KCl, 2 mM CaCl2, 1 mM MgCl2, 0.8 mM NaH2PO4, 5 mM Glucose, 28 mM Hepes, pH 7.4, including the voltage sensitive dye). The measurement was completed after 7 minutes.

Structure (SMILES) | EC50 [1] [µg/mL] | EC50 [2] [µg/mL] | EC50 [3] [µg/mL] | chromatographic logP [4] | inhibition at 10 µg/mL [5] [%] | EC50 (C. elegans Slo-1a) [nM] | inhibition at 1 µg/mL [5] [%]
Cc1nn2c(C(C)C)c(C(=O)N[C@H]3CCOc4ccccc43)cnc2c1-c1c(F)cccc1F [Example 96] | < 0.1 | < 0.1 | < 0.1 | 4.13 | > 80 | 3.98 | –
Cc1nn2c(C(C)C)c(C(=O)N[C@H]3CCc4ccccc43)cnc2c1-c1cc(Cl)c(F)c(Cl)c1 [Example 127] | < 0.1 | < 0.1 | < 0.1 | 5.91 | > 80 | 10 | –
Cc1nn2c(C(C)C)c(C(=O)N[C@H]3CCCc4ccccc43)cnc2c1-c1cc(Cl)c(F)c(Cl)c1 [Example 128] | < 0.1 | < 0.1 | < 0.1 | 6.26 | > 80 | 12.6 | –
Cc1nn2c(C(C)C)c(C(=O)N[C@H]3CCOc4ccccc43)cnc2c1-c1c(F)cccc1Cl [Example 130] | < 0.1 | < 0.1 | < 0.1 | 4.44 | > 80 | 3.98 | –
Cc1nn2c(C(C)C)c(C(=O)N[C@H]3CCOc4ccccc43)cnc2c1-c1cccc(F)c1F [Example 136] | < 0.1 | < 0.1 | < 0.1 | 4.34 | > 80 | 6.31 | > 80
Cc1nn2c(C(C)C)c(C(=O)N[C@H]3CCc4ccccc43)cnc2c1-c1cccc(F)c1F [Example 141] | < 0.1 | < 0.1 | < 0.1 | 4.6 | > 80 | 7.94 | –
Cc1nn2c(C(C)C)c(C(=O)N[C@H]3CCOc4ccccc43)cnc2c1-c1cc(Cl)cc(Cl)c1 [Example 152] | < 0.1 | < 0.1 | < 1 | 5.84 | > 80 | 20 | > 80
Cc1nn2c(C(C)C)c(C(=O)N[C@H]3CCOc4ccccc43)cnc2c1-c1ccc(F)c(F)c1F [Example 166] | < 0.1 | < 0.1 | < 0.1 | 4.54 | > 80 | 1.58 | –
Cc1nn2c(C(C)C)c(C(=O)N[C@H]3CCOc4ccccc43)cnc2c1-c1cccc(Cl)c1Cl [Example 170] | < 0.1 | < 0.1 | < 0.1 | 4.85 | > 80 | 2 | –
COc1cccc(-c2c(C)nn3c(C(C)C)c(C(=O)N[C@H]4CCOc5ccccc54)cnc23)c1F [Example 184] | < 0.1 | < 0.1 | < 0.1 | 2.84 | > 80 | 3.16 | –
Cc1nn2c(C(C)C)c(C(=O)N[C@H]3CCOc4ccccc43)cnc2c1-c1ccc(Br)cc1 [Example 206] | < 1 | – | – | 5.02 | > 80 | 12.6 | –
Cc1nn2c(C(C)C)c(C(=O)N[C@H]3CCc4ccccc43)cnc2c1-c1ncc(Cl)cc1Cl [Example 209] | < 0.1 | – | < 0.1 | 4.51 | > 80 | 1.26 | > 80
CC(C)c1c(C(=O)N[C@H]2CCOc3ccccc32)cnc2c(-c3cc(Cl)cc(Cl)c3)c(S(C)(=O)=O)nn12 [Example 219] | < 1 | – | – | 4.16 | > 80 | 20 | –
COc1ccc(-c2c(C)nn3c(C(C)C)c(C(=O)N[C@H]4CCOc5ccccc54)cnc23)cc1OC [Example 242] | < 10 | – | – | 3.9 | > 80 | 79.4 | –
Cc1nn2c(C(C)C)c(C(=O)N[C@H]3CCOc4ccccc43)cnc2c1-c1cccc2c1OC(F)(F)O2 [Example 257] | < 0.1 | – | – | 4.87 | > 80 | 6.31 | –
Cc1nn2c(C(C)C)c(C(=O)N[C@H]3CCOc4ccccc43)cnc2c1-c1ccc(F)c2c1OCO2 [Example 263] | < 0.1 | – | < 0.1 | 4.13 | > 80 | 1.58 | > 80
Cc1nn2c(C(C)C)c(C(=O)N[C@H]3CCCc4ccccc43)cnc2c1-c1cc(Cl)cc(Cl)c1F [Example 265] | < 1 | – | – | 6.01 | > 80 | 2.51 | –
Cc1nn2c(C(C)C)c(C(=O)N[C@H]3CCc4ccccc43)cnc2c1-c1ccc(F)c(C(F)(F)F)c1 [Example 294] | < 10 | – | – | 5.36 | > 80 | 50.1 | –
CCn1cc(-c2c(C)nn3c(C(C)C)c(C(=O)N[C@H]4CCc5ccccc54)cnc23)cn1 [Example 374] | < 10 | – | – | 3.44 | > 80 | 50.1 | –
Cc1nn2c(C(C)C)c(C(=O)N[C@H]3CCc4ccccc43)cnc2c1-c1cnn(CC2CC2)c1 [Example 376] | < 10 | – | – | 3.83 | > 80 | 7.94 | –
Cc1nn2c(C(C)C)c(C(=O)N[C@H]3CCc4ccccc43)cnc2c1-c1cnn(CC(F)F)c1 [Example 377] | < 10 | – | – | 3.49 | > 80 | 15.8 | –
COCc1cccc(-c2c(C)nn3c(C(C)C)c(C(=O)N[C@H]4CCOc5ccccc54)cnc23)c1 [Example 392] | < 0.1 | – | – | 4.16 | > 80 | 10 | –
Cc1nn2c(C(C)C)c(C(=O)N[C@H]3CCOc4ccccc43)cnc2c1-c1cccc(N(C)C)c1 [Example 393] | < 0.1 | – | – | 3.64 | > 80 | 10 | –
Cc1nn2c(C(C)C)c(C(=O)N[C@H]3CCOc4ccccc43)cnc2c1-c1cnn(CC2CC2)c1 [Example 419] | < 10 | – | – | 3.59 | > 80 | 7.94 | –
Cc1nn2c(C(C)C)c(C(=O)N[C@H]3CCOc4ccccc43)cnc2c1-c1cccc(N2CC(F)(F)C2)c1 [Example 440] | < 1 | – | – | 4.64 | > 80 | 12.6 | –
COCc1cccc(-c2c(C)nn3c(C4CC4)c(C(=O)N[C@H]4CCOc5ccccc54)cnc23)c1 [Example 451] | < 1 | – | – | 3.43 | > 80 | 7.94 | –
Cc1nn2c(C(C)C)c(C(=O)N[C@H]3CCOc4ccccc43)cnc2c1-c1cccc(N2CC(F)C2)c1 [Example 459] | < 1 | – | – | 4.36 | > 80 | 10 | –
Cc1nn2c(C3CC3)c(C(=O)N[C@H]3CCOc4ccccc43)cnc2c1-c1cnn(CC2CC2)c1 [Example 470] | < 10 | – | – | 2.92 | > 80 | 7.94 | –
Cc1nn2c(N3CCOCC3)c(C(=O)N[C@H]3CCOc4ccccc43)cnc2c1-c1cc(Cl)cc(Cl)c1 [Example 516] | < 0.1 | – | < 0.1 | 3.99 | > 80 | 5.01 | > 80
